# Marks after values point to notes of the source that are not given here.
# Assays:
# [1] = Stability in different conditions, content by HPLC; assay type: physicochemical
# in vivo = conditions: male, Sprague-Dawley, rat, po; for MRT: MRT of compound A; for Tmax: Tmax of compound A
# Source text: Male Sprague-Dawley (SD) rats (weight: about 250 g, experimental animal certification of fitness: 0006473) were purchased from Shanghai Slaccas experimental animals limited liability company (certification number: SCXK (Hu) 2003-0003). The relevant qualifications and state of health of the SD rats were checked first, and the eligible ones were placed into the clean grade chambers of rats in Shanghai institute of Materia Medica.
# I. Analysis Condition of LC/MS/MS
# Analysis Condition of Liquid Chromatography
# Chromatographic column: Agilent Zorbax SB-C18 column (50 mm×2.1 mm ID);
# Column temperature: 25° C.;
# Mobile phase: A: H2O—CH3CN (2:98, v/v), B: H2O—CH3CN (10:90, v/v)
# A: 25%+B: 75%, constant gradient elution;
# Analysis time: 3 minutes.
# The light circle was switched to 12/12 hour day/night in the clean grade chambers of rats. Humidity and temperature were 40-60% and 20-24° C., respectively. Every 4 rats were raised in a 36×24×19 cm^3 stainless rat cage. The rats took water freely and were fed special rat food regularly once daily. Only after one week adaption, the rats were used to conduct pharmacokinetics studies. 12 Sprague-Dawley rats were divided into 4 groups, 3 for each group.
# The blood samples were collected 0 hour before the administration and 0.083, 0.25, 0.5, 1.0, 2, 4, 6, and 8 hours after the administration. The blood samples were collected at 250˜300 μL at each time point from posterior venous sinus of the eye after respiration anaesthesia with ether (the degree of anaesthesia was highly controlled). The blood was collected into test tubes containing heparin, and then was centrifuged to produce plasma. The obtained plasma was divided into 2 parts (50 μL for each part) and stored at −70° C. until analysis. […] After experiments, euthanasia was performed with CO2 gas.
# Pharmacokinetics parameters of animal experiment of each group were calculated using InnaPhase Kinetica™ software (America).
# [2] = tested on: human colon cancer Ls174t; assay: Efficacy on human colon cancer Ls174t transplanted in nude mice; conditions: for Weight after Removing Tumor, d0 / TV x ± SD, d0: d0 baseline; for RTV x ± SD / T/C / TV x ± SD, dn: dn 14 days; for Weight after Removing Tumor, dn: dn 14 days after first administration
# Method: BALB/cA-nude mice, ♀, 5-6 weeks-old, available from Shanghai Slaccas experimental animals limited liability company. […] Rearing environment: SPF grade.
# After one week adaption, the experimental animals were subcutaneously inoculated with human colon cancer Ls174t tumor tissues. When the tumors grew to 100-300 mm^3, the animals were randomly divided into several groups in day 0 (d0). […] The volumes of tumors and the weights of mice were measured 2-3 times every week, the data of which were recorded. The equation for the calculation of volume of tumors (V) is: V=½×a×b^2 wherein a and b represent length and width, respectively.
# ErbB2 = ErbB2 (Homo sapiens, UniProt P04626); assay: ELISA tyrosine kinase inhibition; assay type: biochemical
# Chain of ErbB2 (P04626 23-1255, species assumed): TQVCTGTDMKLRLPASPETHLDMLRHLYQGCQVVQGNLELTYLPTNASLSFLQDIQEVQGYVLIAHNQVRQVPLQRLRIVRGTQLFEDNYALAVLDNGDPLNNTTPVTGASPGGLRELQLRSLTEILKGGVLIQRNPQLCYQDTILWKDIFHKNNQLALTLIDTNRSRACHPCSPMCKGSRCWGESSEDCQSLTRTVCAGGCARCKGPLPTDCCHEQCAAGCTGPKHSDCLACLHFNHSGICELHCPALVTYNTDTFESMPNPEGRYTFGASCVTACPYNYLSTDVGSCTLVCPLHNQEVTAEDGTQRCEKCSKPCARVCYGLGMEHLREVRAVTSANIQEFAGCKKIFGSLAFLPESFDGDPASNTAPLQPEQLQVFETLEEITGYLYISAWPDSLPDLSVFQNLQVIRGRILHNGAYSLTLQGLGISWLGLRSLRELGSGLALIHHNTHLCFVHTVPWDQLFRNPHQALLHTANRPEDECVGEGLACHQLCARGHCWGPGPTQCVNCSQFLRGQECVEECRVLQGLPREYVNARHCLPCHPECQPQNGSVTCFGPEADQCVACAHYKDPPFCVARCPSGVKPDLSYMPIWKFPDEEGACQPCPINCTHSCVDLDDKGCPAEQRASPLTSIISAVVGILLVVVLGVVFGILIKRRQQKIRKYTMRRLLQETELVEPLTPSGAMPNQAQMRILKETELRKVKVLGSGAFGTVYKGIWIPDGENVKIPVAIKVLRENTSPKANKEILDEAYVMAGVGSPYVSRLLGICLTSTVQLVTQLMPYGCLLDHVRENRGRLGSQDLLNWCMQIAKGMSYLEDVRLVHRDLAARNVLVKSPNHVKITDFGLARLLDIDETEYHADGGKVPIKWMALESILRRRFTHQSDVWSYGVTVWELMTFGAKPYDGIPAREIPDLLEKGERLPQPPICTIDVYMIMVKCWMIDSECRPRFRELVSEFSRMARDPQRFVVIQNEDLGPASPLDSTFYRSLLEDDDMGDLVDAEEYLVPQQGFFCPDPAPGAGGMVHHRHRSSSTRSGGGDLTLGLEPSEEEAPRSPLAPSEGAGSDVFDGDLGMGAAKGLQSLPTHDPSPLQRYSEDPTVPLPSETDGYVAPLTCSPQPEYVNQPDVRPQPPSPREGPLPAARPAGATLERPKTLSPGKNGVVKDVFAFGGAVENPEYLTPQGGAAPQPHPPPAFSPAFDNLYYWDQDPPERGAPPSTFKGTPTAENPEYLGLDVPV
# Method: (§1) Phosphorylation of substrate was determined with monoclonal antibody of anti-phosphorylation tyrosine (PY99). Goat anti-mouse IgG marked with HRP was then added, and the degree of phosphorylation of substrate was determined with OPD coloration. At the same time, the control group without tyrosine kinase and control wells of corresponding DMSO concentration were set up. 2 M of H2SO4 was added in 50 μl/well to terminate the reaction. Data was read with adjustable wavelength micro plate enzyme-labeling instrument VERSAmax (Sunnyvale, Calif., U.S.A.), followed by visualization reaction, OD490 nm value was then observed.
# (§2) Relative inhibition rate of drugs on tyrosine kinase protein was determined.
# FGFR1 = FGFR1 (Homo sapiens, UniProt P11362); assay: ELISA tyrosine kinase inhibition; assay type: biochemical
# Chain of FGFR1 (P11362 22-822, species assumed): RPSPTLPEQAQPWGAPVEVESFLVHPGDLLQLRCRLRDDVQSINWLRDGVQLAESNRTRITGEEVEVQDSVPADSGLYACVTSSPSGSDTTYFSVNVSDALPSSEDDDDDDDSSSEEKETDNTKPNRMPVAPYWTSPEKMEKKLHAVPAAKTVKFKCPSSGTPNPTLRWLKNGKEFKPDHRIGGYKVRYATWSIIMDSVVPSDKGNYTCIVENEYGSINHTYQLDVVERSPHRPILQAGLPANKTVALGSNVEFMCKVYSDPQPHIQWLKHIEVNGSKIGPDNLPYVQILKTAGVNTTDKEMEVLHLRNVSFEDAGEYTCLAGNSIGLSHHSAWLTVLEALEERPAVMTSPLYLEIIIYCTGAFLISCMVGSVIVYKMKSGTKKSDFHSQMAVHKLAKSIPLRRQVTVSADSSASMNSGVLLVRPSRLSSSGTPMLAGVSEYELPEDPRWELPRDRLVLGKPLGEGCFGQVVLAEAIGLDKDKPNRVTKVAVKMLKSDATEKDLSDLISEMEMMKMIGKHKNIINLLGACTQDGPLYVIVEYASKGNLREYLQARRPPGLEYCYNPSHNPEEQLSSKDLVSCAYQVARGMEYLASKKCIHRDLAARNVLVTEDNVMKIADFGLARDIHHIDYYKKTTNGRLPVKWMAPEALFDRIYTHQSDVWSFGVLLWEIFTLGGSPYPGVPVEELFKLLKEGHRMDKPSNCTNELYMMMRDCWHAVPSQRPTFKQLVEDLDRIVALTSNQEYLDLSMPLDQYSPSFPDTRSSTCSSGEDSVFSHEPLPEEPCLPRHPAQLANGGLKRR
# Method: as §1, §2
# Flt1 = Flt1 (Homo sapiens, UniProt P17948); assay: ELISA tyrosine kinase inhibition; assay type: biochemical; conditions: average of 3 experiments; read-out: IC50 ± SD, Flt1
# Method: as §1, §2
# EGFR1 = EGFR1 (Homo sapiens, UniProt P00533); assay: ELISA tyrosine kinase inhibition; assay type: biochemical
# Chain of EGFR1 (P00533 25-1210): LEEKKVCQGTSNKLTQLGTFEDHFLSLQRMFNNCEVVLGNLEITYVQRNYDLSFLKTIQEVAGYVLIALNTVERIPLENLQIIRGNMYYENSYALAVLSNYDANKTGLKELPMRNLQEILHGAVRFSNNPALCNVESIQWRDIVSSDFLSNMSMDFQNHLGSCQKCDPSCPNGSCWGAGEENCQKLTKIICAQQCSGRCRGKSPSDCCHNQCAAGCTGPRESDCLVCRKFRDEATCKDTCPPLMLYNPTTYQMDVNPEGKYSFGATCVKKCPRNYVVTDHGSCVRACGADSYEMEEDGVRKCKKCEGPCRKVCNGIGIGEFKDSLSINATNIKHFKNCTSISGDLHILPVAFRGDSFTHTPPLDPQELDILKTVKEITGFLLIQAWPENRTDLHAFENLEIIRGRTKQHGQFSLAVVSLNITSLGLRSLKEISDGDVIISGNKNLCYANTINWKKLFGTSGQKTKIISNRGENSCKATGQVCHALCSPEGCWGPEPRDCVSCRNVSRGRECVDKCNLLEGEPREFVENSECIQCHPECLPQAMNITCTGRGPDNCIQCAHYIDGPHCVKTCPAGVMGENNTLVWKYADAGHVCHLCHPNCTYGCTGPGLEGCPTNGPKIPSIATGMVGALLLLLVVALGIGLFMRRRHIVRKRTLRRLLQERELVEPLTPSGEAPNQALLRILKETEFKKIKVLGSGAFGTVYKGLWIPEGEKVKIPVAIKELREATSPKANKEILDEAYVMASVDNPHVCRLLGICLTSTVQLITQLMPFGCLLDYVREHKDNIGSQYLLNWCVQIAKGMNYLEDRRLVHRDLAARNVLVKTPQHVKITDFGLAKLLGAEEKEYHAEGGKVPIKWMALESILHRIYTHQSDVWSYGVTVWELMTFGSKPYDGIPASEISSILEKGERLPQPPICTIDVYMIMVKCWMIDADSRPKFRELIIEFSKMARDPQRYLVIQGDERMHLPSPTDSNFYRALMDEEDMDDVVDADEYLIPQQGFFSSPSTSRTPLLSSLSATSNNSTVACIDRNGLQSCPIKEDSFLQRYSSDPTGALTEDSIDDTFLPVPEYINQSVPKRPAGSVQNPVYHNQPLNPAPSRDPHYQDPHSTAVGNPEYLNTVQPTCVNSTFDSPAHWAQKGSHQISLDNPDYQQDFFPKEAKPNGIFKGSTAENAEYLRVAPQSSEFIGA
# Method: as §1, §2
# PDGFRβ = PDGFRβ (Homo sapiens, UniProt P09619); assay: ELISA tyrosine kinase inhibition; assay type: biochemical; conditions: average of 3 experiments; read-out: IC50 ± SD, PDGFRβ
# Method: as §1, §2
# c-Src = c-Src (Homo sapiens, UniProt P12931); assay: ELISA tyrosine kinase inhibition; assay type: biochemical; conditions: average of 3 experiments; read-out: IC50 ± SD, c-Src
# Chain of c-Src (P12931 whole entry, species assumed): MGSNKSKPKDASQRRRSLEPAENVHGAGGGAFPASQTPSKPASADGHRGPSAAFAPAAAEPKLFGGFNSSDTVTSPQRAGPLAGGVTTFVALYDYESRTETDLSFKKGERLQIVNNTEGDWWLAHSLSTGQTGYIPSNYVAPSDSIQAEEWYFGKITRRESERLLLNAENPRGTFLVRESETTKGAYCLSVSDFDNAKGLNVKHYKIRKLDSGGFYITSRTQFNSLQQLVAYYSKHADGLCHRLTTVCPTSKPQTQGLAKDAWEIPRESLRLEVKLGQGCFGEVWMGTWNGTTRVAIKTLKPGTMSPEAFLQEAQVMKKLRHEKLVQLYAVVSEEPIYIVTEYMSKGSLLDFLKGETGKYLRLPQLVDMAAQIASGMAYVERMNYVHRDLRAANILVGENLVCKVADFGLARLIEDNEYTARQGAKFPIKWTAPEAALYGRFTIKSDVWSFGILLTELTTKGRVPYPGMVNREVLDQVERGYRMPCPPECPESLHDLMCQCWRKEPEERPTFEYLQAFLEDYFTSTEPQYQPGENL
# Method: as §1, §2
# c-Kit = c-Kit (Homo sapiens, UniProt P10721); assay: ELISA tyrosine kinase inhibition; assay type: biochemical; conditions: average of 3 experiments; read-out: IC50 ± SD, c-Kit
# Method: as §1, with “observed. […] Relative inhibition rate of drugs on tyrosine kinase protein was determined.” for “observed.”
# KDR = KDR (Homo sapiens, UniProt P35968); assay: ELISA tyrosine kinase inhibition; assay type: biochemical; conditions: average of 3 experiments; read-out: IC50 ± SD, KDR
# Chain of KDR (P35968 20-1356, species assumed): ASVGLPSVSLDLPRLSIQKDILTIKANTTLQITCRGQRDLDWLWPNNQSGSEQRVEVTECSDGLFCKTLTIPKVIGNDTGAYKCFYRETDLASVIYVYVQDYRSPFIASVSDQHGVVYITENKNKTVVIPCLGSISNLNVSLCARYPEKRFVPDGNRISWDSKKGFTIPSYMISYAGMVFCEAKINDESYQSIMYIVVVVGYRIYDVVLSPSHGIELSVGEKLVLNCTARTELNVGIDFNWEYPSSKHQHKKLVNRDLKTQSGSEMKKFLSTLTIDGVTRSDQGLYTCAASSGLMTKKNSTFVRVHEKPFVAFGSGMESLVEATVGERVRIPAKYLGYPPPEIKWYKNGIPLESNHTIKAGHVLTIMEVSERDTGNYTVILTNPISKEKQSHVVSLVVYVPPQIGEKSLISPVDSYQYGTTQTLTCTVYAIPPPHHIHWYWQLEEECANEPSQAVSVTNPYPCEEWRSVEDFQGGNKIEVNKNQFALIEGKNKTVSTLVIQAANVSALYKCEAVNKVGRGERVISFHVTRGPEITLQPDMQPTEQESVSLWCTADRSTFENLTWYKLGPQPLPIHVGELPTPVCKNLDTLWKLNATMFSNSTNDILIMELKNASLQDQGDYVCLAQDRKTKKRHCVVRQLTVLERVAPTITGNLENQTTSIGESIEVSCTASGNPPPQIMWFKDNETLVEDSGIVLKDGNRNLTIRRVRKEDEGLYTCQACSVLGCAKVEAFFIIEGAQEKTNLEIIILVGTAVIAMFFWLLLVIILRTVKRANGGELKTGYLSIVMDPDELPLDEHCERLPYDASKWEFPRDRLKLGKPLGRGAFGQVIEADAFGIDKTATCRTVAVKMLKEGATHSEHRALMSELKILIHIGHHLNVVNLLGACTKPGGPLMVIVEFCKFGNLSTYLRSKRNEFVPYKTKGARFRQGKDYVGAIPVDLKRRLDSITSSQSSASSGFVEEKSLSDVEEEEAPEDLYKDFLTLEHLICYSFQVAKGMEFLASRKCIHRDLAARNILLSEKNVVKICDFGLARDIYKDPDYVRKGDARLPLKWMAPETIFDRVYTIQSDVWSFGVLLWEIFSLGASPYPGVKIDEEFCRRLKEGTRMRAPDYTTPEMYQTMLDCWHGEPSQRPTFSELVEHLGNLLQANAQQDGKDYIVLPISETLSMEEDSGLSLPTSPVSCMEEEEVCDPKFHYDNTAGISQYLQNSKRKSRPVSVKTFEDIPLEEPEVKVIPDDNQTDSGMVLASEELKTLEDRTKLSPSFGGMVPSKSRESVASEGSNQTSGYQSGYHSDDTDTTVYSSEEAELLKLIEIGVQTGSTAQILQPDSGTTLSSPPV
# Method: as §1, with “observed. […] Relative inhibition rate of drugs on tyrosine kinase protein was determined.” for “observed.”
# [3] = 50 mg/kg p.o. once daily d0-d13
# [4] = 100 mg/kg p.o. once daily d0-d13
# [5] = 200 mg/kg p.o. once daily d0-d13
# [6] = concentration increased to 10^4 nM
smiles,measurement,setting,value
N#CC1(c2ccc(NC(=O)c3cccnc3NCc3ccncc3)cc2)CCCC1 [Mesylate of compound A],stability (conclusion of stability experiments),[1],most stable
same,content after 6 Months Under Light,"[1]; HPLC, initial purity 99.6%",99.5%
same,content after 6 Months at 60° C.,"[1]; HPLC, initial purity 99.6%",98.4%
same,content after 6 Months at Room Temperature,"[1]; HPLC, initial purity 99.6%",99.5%
same,AUC(0-t),"in vivo; 1 mmol/kg, AUC0→8 h Mol dose",17200 ± 6980 ng·h/mL
same,AUC(0-t),"in vivo; 20 mg/kg, AUC0→8 h of compound A, Mean ± SD",697 ± 283 ng·h/mL
same,concentration at 0 h,"in vivo; 20 mg/kg, Blood Concentration of compound A, 0 h",0 ng/mL
same,concentration at 4 h,"in vivo; 20 mg/kg, Blood Concentration of compound A, 4 h",30.5 ng/mL
same,concentration at 8 h,"in vivo; 20 mg/kg, Blood Concentration of compound A, 8 h",29.9 ng/mL
same,Cmax,"in vivo; 20 mg/kg, Cmax of compound A, Mean ± SD",489 ± 296 ng/mL
same,MRT,in vivo; 20 mg/kg,70.8 min
same,MRT,"in vivo; 20 mg/kg, Mean ± SD",98.4 ± 28.8 min
same,half-life,"in vivo; 20 mg/kg, T1/2 of compound A, Mean ± SD",52.2 ± 23.4 min
same,Tmax,in vivo; 20 mg/kg,15 min
same,Tmax,"in vivo; 20 mg/kg, Mean ± SD",19.8 ± 8.4 min
same,"Weight after Removing Tumor, d0",[2]; [3],19.1 g
same,RTV x ± SD,[2]; [3],9.8 ± 3.0
same,T/C,[2]; [3],79.7%
same,"TV x ± SD, dn",[2]; [3],1452 ± 149
same,"Weight after Removing Tumor, dn",[2]; [3],16.8 g
same,"TV x ± SD, d0",[2]; 50 mg/kg p.o.,155 ± 33
same,"Weight after Removing Tumor, d0",[2]; [4],19.0 g
same,RTV x ± SD,[2]; [4],6.4 ± 3.1
same,T/C,[2]; [4],52.0^a %
same,"TV x ± SD, dn",[2]; [4],931 ± 196
same,"Weight after Removing Tumor, dn",[2]; [4],18.5 g
same,"TV x ± SD, d0",[2]; 100 mg/kg p.o.,161 ± 44
same,"Weight after Removing Tumor, d0",[2]; [5],18.6 g
same,RTV x ± SD,[2]; [5],2.0 ± 0.9
same,"TV x ± SD, dn",[2]; [5],310 ± 114
same,"Weight after Removing Tumor, dn",[2]; [5],18.5 g
same,T/C,"[2]; 200 mg/kg p.o. once daily d0-d13, listed as Mesylate of Compound A",16.3^a %
same,T/C,"[2]; 200 mg/kg p.o. once daily d0-d13, listed as mesylate of compound A",16.3%
same,"TV x ± SD, d0",[2]; 200 mg/kg p.o.,158 ± 20
same,efficacy at 400 mg/kg,[2]; 400 mg/kg,did not increase significantly
same,ED50,"[2]; Mus musculus, LS174T, read-out: ED50 on colon cancer Ls174t",97.2 mg/kg
same,tolerance at 400 mg/kg,"[2]; mouse, in vivo",could be tolerated by mice
same,IC50,"ErbB2; average of 3 experiments, read-out: IC50 ± SD, ErbB2",> 10000 nM
same,inhibition on ErbB2,ErbB2; [6],no inhibition
same,IC50,"FGFR1; average of 3 experiments, read-out: IC50 ± SD, FGFR1",> 10000 nM
same,inhibition on FGFR1,FGFR1; [6],no inhibition
same,IC50,Flt1,70.1 nM
same,IC50,"EGFR1; average of 3 experiments, read-out: IC50 ± SD, EGFR1",> 10000 nM
same,inhibition on EGFR1,EGFR1; [6],no inhibition
same,IC50,PDGFRβ,537 nM
same,IC50,c-Src,349 nM
same,IC50,c-Kit,420 nM
same,IC50,KDR,2.43 nM

# Reference: patent US8362256B2, “Salts of N-[4-(1-cyanocyclopentyl)phenyl]-2-(4-pyridylmethyl)amino-3-pyridinecarboxamide” (Jiangsu Hengrui Medicine Co. Ltd., priority 2008, dated 2013)
